Measured values from publication PMC10630888, “Nuclear ERK1/2 signaling potentiation enhances neuroprotection and cognition via Importinα1/KPNA2” (EMBO Molecular Medicine, 2023).

How the values were obtained:
[1] = test system: ERK phosphorylation (pERK); assay: pERK dose-response in acute striatal slices (ex vivo); assay type: cell-based, mouse; conditions: fresh acute striatal slices from adult mice, RB5 0.5–100 μM, 1 h at 32°C; GraphPad Prism; n = 8–12 slices per group; read-out: EC50 of pERK enhancement (ERK activation)
Description: Adult C57Bl/6 mice were decapitated after cervical dislocation and brain slices were freshly prepared as previously described in Orellana et al ([2012]) and Papale et al ([2016]). Briefly, the brains were rapidly removed from the skull, submerged in ice‐cold sucrose‐based dissecting solution, and sliced into 200 μm‐thick slices using a vibratome. […] After a rapid fixation in 4% PFA, slices were rinsed and cryoprotected overnight at 4°C in 30% sucrose solution. On the following day, slices were cut into 18 μm‐thick slices using a cryostat (Leica CM1850), mounted onto SuperFrost Plus slides (Thermo Scientific) and stored at −20°C until processing for immunohistochemistry or immunofluorescence.
Immunohistochemistry was performed as described in Papale et al ([2016]). […]
For ex‐vivo immunohistochemistry experiments, images were acquired from the dorsal striatum using a bright‐field microscope (Macro/Micro Imaging System, Leica) under a 40× magnification. Neuronal quantification was performed with ImageJ software by counting the number of phospho‐ERK positive cells in two sections for each sample in three fields per section. […] The EC50 for pERK was calculated using GraphPad Prism software.

pERK1/2 = pERK1/2 in striatum of zQ175 females after RB5; assay type: in vivo, mouse; conditions: zQ175 females and WT controls, RB5 for 9 days
Description: Immunohistochemistry was performed as described in Papale et al ([2016]). Briefly, 1 h after blocking in 5% normal goat serum and 0.1% Triton X‐100 solution, free‐floating sections were incubated overnight at 4°C with one of the following primary antibodies: anti‐phospho‐p44/42 MAP kinase (Thr202/Tyr204) (1:200, Cell Signaling Technology #9101), anti‐phospho–Elk‐1 (Ser383) (1:100, Cell Signaling #9181), anti‐phospho‐Kv4.2 (Thr607)‐R (1:100, Santa Cruz sc22254‐R), anti‐phospho‐MSK‐1 (1:100 Cell Signaling Technology #9595), anti‐phospho‐MEK1/2 (Ser218/222) (1:100, sc‐7995 Santa Cruz Biotechnology), c‐Fos (1:100, sc‐52 Santa Cruz Biotechnology), tyrosine Hydroxylase (monoclonal 1:1,000, Sigma Aldrich, Italy) and anti‐DARPP‐32 (H3) (1:100, Santa Cruz Biotechnology, #sc‐271111) overnight at 4°C. […]
For in vivo immunohistochemistry experiments, images were acquired from the dorsal striatum using a Leica DM IRB microscope under a 20× objective. The number of p‐ERK, p‐MSK‐1, p‐ELK, p‐MEK‐1, p‐VG K+, c‐Fos, and DARPP‐32 positive cells was counted in 2–3 consecutive sections per mouse, bilaterally and averaged across the sections using the ImageJ software by a blind investigator to the condition. Estimation of nigral cell loss was assessed by quantifying the number of TH‐immunopositive neurons of the SNc in 360 μm‐spaced sections for each animal. […]

Q: “GRKKRRQRRRPPQGGGGGEPRRTEGVGPGVPGEVEMVKGQPFDV [RB5, six D-amino acids, acetylated N-terminus]” was tested. Which EC50 [1] did it give?
A: 3.4 µM

Q: And the “pERK1/2 levels in striatum” value (pERK1/2)?
A: enhanced
